Laboratory results: patent US6391857B1, “Methods and compositions for endothelial binding” (Stanford University, priority 1990, dated 2002)

Key:
[1] = test system: antibody 1H10; assay: Direct binding ELISA of antibody 1H10 to solid-phase neoglycoproteins; parameters: species or system mouse; conditions: 100 ng neoglycoprotein per well, antibody 10 μg/ml
Procedure: Synthetic glycoproteins were coated onto microtiter plates by filling each well with 100 ng of the neoglycoprotein in 100 μl of 0.15 M sodium chloride, 0.01 M sodium phosphate, 0.1% sodium azide, pH 7.4, (PBS-azide) overnight at 4° C. Standard enzyme-linked immunoassays (ELISA) were then performed on the solid phase carbohydrate structures using the appropriate antibody diluted to 10 μg/ml.

[2] = target: T1, mouse LECAM-1 (Mus musculus, UniProt P18337); assay: Cell binding assay: mouse lymphocytes on coated synthetic glycoconjugates; type: cell-based; conditions: mesenteric lymph node lymphocytes, 3×10^6 cells in 0.15 ml
T1 construct: Mouse lymphocytes isolated from mesenteric lymph nodes were also tested; endogenous in cells; host or cells: primary mouse lymphocytes from mesenteric lymph nodes
T1 sequence (P18337 39-372): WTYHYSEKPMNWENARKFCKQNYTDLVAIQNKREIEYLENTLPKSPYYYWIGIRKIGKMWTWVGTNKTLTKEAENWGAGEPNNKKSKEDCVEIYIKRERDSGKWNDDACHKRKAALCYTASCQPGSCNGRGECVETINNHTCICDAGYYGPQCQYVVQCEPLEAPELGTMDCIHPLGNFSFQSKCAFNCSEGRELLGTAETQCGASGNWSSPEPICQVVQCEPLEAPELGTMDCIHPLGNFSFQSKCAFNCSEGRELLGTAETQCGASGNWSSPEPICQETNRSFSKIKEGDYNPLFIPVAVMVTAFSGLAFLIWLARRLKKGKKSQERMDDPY
Procedure: Cell binding assays. One hundred microliter samples of each synthetic glycoconjugate in phosphate buffered saline (PBS), pH7.2, were absorbed onto glass wells of 8-chamber slides (LabTek) for two hours at RT. After blocking with 5% NBS, 10 mM HEPES, Dulbecco's Modified Eagles Medium (DMEM), pH7.0 (CM), L1-2^LECAM-1, L1-2^vector or L1-2^ELAM-1 cells were applied to each well (1.5×10^6 cells in 0.15 ml CM). Mouse lymphocytes isolated from mesenteric lymph nodes were also tested at 3×10^6 cells in 0.15 ml. In some cases, cells were preincubated with monoclonal antibody MEL-14 (Gallatin et al., 1983, supra) at 150 μg/ml/10^7 cells and washed prior to testing. After a 25 minute incubation at RT on a rotating shaker at 50 rpm, the tops of the wells were removed and the slides washed 3× in DMEM and then fixed by incubation in 1.5% glutaraldehyde (Kodak) in DMEM. Three to six 100× fields were counted for each data point and the average and standard error are reported. Data reported are from representative experiments which were performed 2-5 times with similar results.

[3] = target: T2, ELAM-1 (Homo sapiens, UniProt P16581); assay: Cell binding assay: L1-2^ELAM-1 cells on glass slides coated with synthetic glycoconjugates; type: cell-based; conditions: 25 min RT, 50 rpm
T2 construct: expressed in transfected cells; host or cells: murine pre-B cell line L1-2, vector pMRB101 derivative (pMRB107), hCMV promoter
T2 sequence (P16581 22-610): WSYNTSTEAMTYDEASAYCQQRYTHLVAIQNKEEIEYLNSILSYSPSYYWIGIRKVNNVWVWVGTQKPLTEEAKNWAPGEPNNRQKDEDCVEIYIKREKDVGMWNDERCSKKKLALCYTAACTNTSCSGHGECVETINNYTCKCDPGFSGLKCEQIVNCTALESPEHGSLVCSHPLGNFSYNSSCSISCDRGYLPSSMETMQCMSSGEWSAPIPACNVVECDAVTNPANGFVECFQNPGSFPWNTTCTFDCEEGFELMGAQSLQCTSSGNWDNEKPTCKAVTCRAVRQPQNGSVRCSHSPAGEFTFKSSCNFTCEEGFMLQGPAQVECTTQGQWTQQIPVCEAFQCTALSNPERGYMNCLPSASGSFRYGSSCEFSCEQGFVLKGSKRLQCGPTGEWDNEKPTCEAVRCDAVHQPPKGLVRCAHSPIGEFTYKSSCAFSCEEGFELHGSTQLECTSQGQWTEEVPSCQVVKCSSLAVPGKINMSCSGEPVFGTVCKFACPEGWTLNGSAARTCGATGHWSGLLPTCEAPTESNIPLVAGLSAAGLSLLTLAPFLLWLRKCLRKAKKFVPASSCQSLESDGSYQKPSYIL
Procedure: L1-2/pMRB107 cells (L1-2^ELAM-1) were prepared by transfecting the ELAM-1 gene into the murine pre-B cell line L1-2 (Gallatin et al. (1983) Nature 35 304:30-34). A cDNA clone encoding ELAM-1 was obtained from a CDNA library made from activated human umbilical vein endothelial cell cultures by polymerase chain reaction amplification. The ELAM-1 gene was inserted downstream of the hCMV promoter in pMRB101 [a derivative of EE6 which contains the E. coli gpt gene (Mulligan and Berg (1981) Proc. Nat'l. Acad. Sci. USA 78:2072; Stephens and Corbett (1989) N.A.R. 17:7110)]. DNA was introduced into L1-2 cells by electroporation and the cells selected for resistance to mycophenolic acid. A population of cells staining brightly for ELAM-1 were selected by FACS and cloned by limiting dilution. These cells are ELAM-1^hi LFA-1^mod CD45^hi CD44^neg LECAM-1^neg, differing from the parent cell line or control vector transfectants only in their expression of ELAM-1. L1-2/pMRB101 (L1-2^vector) cells are a similarly transformed derivative of L1-2 transfected with pMRB101 and lacking ELAM-1 expression.
One hundred microliter samples of each synthetic glycoconjugate in phosphate buffered saline (PBS), pH 7.2, were absorbed onto glass wells of 8-chamber slides (LabTek) for two hours at RT. For some experiments glass slides were pre-coated with rabbit anti-human serum albumin (Sigma) at 200 μg/ml overnight at 4° C. and washed with PBS prior to the addition of the glycoconjugate. After blocking with 5% NBS/ 10 mM HEPES/Dulbecco's Modified Eagles Medium (DMEM), pH 7.0 (CM), L1-2^ELAM-1 or L1-2^vector cells were applied to each well (1.5×10^6/0.15 ml in CM). After a 25 minute incubation at RT on a rotating shaker at 50 rpm, the tops of the wells were removed and the slides washed 3× in DMEM and then fixed by incubation in 1.5% glutaral-dehyde (Kodak)/DMEM. Three to six 100× fields were counted for each data point and the average and standard error are reported. Data reported are from representative experiments which were performed 2-5 times with similar results.

## Neu5Acα2-3Galβ1-3GlcNAcβ1-3Galβ1-4(Glc) [LSTa]
[1]
  direct binding of antibody 1H10 to neoglycoprotein: weakly crossreacts
[2]
  binding of mouse lymphocytes to coated neoglycoconjugate: not
[3]
  binding of L1-2^ELAM-1 cells to coated glycoconjugate: did not bind

## Neu5Acα2-6Galβ1-4GlcNAcβ1-3Galβ1-4(Glc) [LSTc]
[3]
  binding of L1-2^ELAM-1 cells to coated glycoconjugate: did not bind

## NeuNAc α2-3Gal βl-4 (Glc) [3′SL]
[2]
  binding of mouse lymphocytes to coated neoglycoconjugate: not
[3]
  binding of L1-2^ELAM-1 cells to coated glycoconjugate: did not bind

## NeuNAc α2-6Gal βl-4 (Glc) [6′SL]
[2]
  binding of mouse lymphocytes to coated neoglycoconjugate: not
[3]
  binding of L1-2^ELAM-1 cells to coated glycoconjugate: did not bind
